Reference: PMC4729137, “Functional analysis of androgen receptor mutations that confer anti-androgen resistance identified in circulating cell-free DNA from prostate cancer patients” (Genome Biology, 2016)
Where a chain is given by its changes, count along the chain named.

How the values were obtained:
E894K-AR [1] = biological target: T1, E894K-AR (Homo sapiens, UniProt P10275, E894K); format: cell-based; settings: AR mutant E894K; transfected PC3 cells; 0.1 nM R1881; drug 0 to 50 μM
T1 sequence (P10275 1-920 E894K): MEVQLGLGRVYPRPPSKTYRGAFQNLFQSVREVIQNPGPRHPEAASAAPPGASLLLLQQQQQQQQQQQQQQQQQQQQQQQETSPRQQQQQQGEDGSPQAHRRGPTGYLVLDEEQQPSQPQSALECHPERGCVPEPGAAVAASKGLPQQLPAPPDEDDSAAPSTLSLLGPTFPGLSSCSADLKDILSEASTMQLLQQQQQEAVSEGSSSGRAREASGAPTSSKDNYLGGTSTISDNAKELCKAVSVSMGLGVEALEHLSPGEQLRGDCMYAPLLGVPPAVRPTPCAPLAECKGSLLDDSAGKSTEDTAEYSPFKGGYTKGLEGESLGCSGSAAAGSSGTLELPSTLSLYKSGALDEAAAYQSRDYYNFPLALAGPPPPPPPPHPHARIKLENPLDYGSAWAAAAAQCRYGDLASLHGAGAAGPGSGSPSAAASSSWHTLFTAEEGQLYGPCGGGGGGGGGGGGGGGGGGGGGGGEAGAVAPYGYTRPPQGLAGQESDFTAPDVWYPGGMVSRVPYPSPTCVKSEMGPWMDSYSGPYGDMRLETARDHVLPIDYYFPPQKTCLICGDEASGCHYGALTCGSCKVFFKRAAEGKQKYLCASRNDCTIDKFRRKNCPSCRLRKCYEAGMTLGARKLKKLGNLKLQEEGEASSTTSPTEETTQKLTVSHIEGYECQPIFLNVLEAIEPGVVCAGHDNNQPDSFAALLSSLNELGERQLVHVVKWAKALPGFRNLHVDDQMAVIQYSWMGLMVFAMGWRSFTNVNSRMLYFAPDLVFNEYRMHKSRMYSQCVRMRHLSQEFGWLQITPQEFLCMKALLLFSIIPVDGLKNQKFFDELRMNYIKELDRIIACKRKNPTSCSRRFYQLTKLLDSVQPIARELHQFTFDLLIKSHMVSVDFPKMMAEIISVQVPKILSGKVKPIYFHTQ

H875Q-AR = biological target: T2, H875Q-AR (Homo sapiens, UniProt P10275, H875Q); format: cell-based; settings: AR mutant H875Q; transfected PC3 cells; 0.1 nM R1881; drug 0 to 50 μM
T2 sequence (P10275 1-920 H875Q): T1 sequence (P10275 1-920 E894K) with H875Q, K894E

E894K-AR [2] = biological target: T1, E894K-AR; assay: cell-based

For CC(C)(O)C(=O)Nc1ccc([N+](=O)[O-])c(C(F)(F)F)c1 [Hydroxyflutamide, hydroxyflutamide], the “Agonist response to treatment” value (E894K-AR [1]) was “Partial” and the “Agonist response to treatment” value (H875Q-AR) was “Partial”.
C[C@]12CCC(=O)C=C1CC[C@@H]1[C@@H]2[C@@H](O)C[C@@]2(C)[C@H]1CC[C@]2(O)C(=O)CO [hydrocortisone] was tested, and the EC50 (E894K-AR [2]) was greater than 500 nM.
